In PubChem BioAssay AID180 (DTP/NCI, 2004):
Where “and” joins values, the source holds several entries; their conditions need not be identical. Identical values can stand only once.

System: BDF1 mice, Adenocarcinoma 755 s.c., tumor weight T/C
Test: NCI In Vivo Anticancer Drug Screen. Data for tumor model Adenocarcinoma 755 (subcutaneous) in B6D2F1 (BDF1) mice
Conditions: endpoint: mean tumor weight, higher = larger tumour
Outline: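 Readout: T/C, i.e. treated-group measurement over vehicle-control measurement. Endpoint is survival or tumor size in tumor-bearing mice given compound.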

[1] = dose: 125.0 mg/kg/injection, schedule: Q01DX011 (ip), vehicle: methylcellulose (MC)
[2] = dose: 12.0 mg/kg/injection, schedule: Q01DX011 (ip), vehicle: methylcellulose (MC)
[3] = dose: 50.0 mg/kg/injection, schedule: Q01DX011 (ip), vehicle: methylcellulose (MC)
[4] = dose: 100.0 mg/kg/injection, schedule: Q01DX011 (ip), vehicle: methylcellulose (MC)

`CCOC(N)=O` was tested, and the T/C (dose: 62.5 mg/kg/injection, schedule: Q#A X022 (ip), vehicle: saline) was 52 % of control, the T/C (dose: 62.62 mg/kg/injection, schedule: Q01DX011 (ip), vehicle: carboxymethylcellulose (CMC)) was 79 % of control and the T/C (dose: 102.5 mg/kg/injection, schedule: Q01DX011 (ip), vehicle: carboxymethylcellulose (CMC)) was 94 % of control. The T/C (dose: 125.0 mg/kg/injection, schedule: Q01DX001 (ip), vehicle: saline) was 121 % of control, the T/C (dose: 125.0 mg/kg/injection, schedule: Q01DX006 (iv), vehicle: saline) was 75 % of control and the T/C (dose: 125.0 mg/kg/injection, schedule: Q01DX011 (im), vehicle: saline) was 83 % of control. The T/C [1] was 85 % of control, the T/C (dose: 125.0 mg/kg/injection, schedule: Q01DX011 (ip), vehicle: saline) was 68 % of control and the T/C (dose: 125.0 mg/kg/injection, schedule: Q01DX011 (sc), vehicle: saline) was 96 % of control. For the same compound, the T/C (dose: 125.0 mg/kg/injection, schedule: Q07DX002 (ip), vehicle: saline) was 104 % of control, the T/C (dose: 125.0 mg/kg/injection, schedule: Q#A X022 (ip), vehicle: saline) was 59 % of control and the T/C (dose: 125.25 mg/kg/injection, schedule: Q01DX011 (ip), vehicle: carboxymethylcellulose (CMC)) was 63 % of control. The T/C (dose: 200.4 mg/kg/injection, schedule: Q01DX011 (ip), vehicle: carboxymethylcellulose (CMC)) was 41 % of control and 50 % of control, the T/C (dose: 205.0 mg/kg/injection, schedule: Q01DX011 (ip), vehicle: carboxymethylcellulose (CMC)) was 116 % of control and the T/C (dose: 250.0 mg/kg/injection, schedule: Q01DX001 (ip), vehicle: saline) was 92 % of control and 93 % of control. The T/C (dose: 250.0 mg/kg/injection, schedule: Q01DX006 (iv), vehicle: saline) was 74 % of control, the T/C (dose: 250.0 mg/kg/injection, schedule: Q01DX011 (im), vehicle: saline) was 65 % of control and the T/C (dose: 250.0 mg/kg/injection, schedule: Q01DX011 (ip), vehicle: methylcellulose (MC)) was 53 % of control. The T/C (dose: 250.0 mg/kg/injection, schedule: Q01DX011 (ip), vehicle: saline) was 51 % of control, the T/C (dose: 250.0 mg/kg/injection, schedule: Q01DX011 (oral), vehicle: saline) was 69 % of control and the T/C (dose: 250.0 mg/kg/injection, schedule: Q01DX011 (sc), vehicle: saline) was 67 % of control. For the same compound, the T/C (dose: 250.0 mg/kg/injection, schedule: Q07DX002 (ip), vehicle: saline) was 85 % of control, the T/C (dose: 250.0 mg/kg/injection, schedule: Q#A X022 (ip), vehicle: saline) was 9 % of control and the T/C (dose: 328.0 mg/kg/injection, schedule: Q01DX011 (ip), vehicle: carboxymethylcellulose (CMC)) was 41 % of control and 52 % of control. The T/C (dose: 375.0 mg/kg/injection, schedule: Q03DX004 (ip), vehicle: saline) was 59 % of control, the T/C (dose: 500.0 mg/kg/injection, schedule: Q01DX001 (ip), vehicle: saline) was 110 % of control and 85 % of control and the T/C (dose: 500.0 mg/kg/injection, schedule: Q01DX006 (iv), vehicle: saline) was 38 % of control. For the same compound, the T/C (dose: 500.0 mg/kg/injection, schedule: Q01DX011 (im), vehicle: saline) was 32 % of control, the T/C (dose: 500.0 mg/kg/injection, schedule: Q01DX011 (ip), vehicle: methylcellulose (MC)) was 33 % of control and the T/C (dose: 500.0 mg/kg/injection, schedule: Q01DX011 (ip), vehicle: saline) was 19 % of control. For the same compound, the T/C (dose: 500.0 mg/kg/injection, schedule: Q01DX011 (oral), vehicle: saline) was 20 % of control, the T/C (dose: 500.0 mg/kg/injection, schedule: Q01DX011 (sc), vehicle: saline) was 42 % of control and the T/C (dose: 500.0 mg/kg/injection, schedule: Q07DX002 (ip), vehicle: saline) was 83 % of control. For the same compound, the T/C (dose: 501.0 mg/kg/injection, schedule: Q01DX011 (ip), vehicle: carboxymethylcellulose (CMC)) was 17 % of control and 27 % of control, the T/C (dose: 546.6 mg/kg/injection, schedule: Q01DX011 (ip), vehicle: carboxymethylcellulose (CMC)) was 22 % of control and 23 % of control and the T/C (dose: 750.0 mg/kg/injection, schedule: Q03DX004 (ip), vehicle: saline) was 54 % of control. For the same compound, the T/C (dose: 820.0 mg/kg/injection, schedule: Q01DX011 (ip), vehicle: carboxymethylcellulose (CMC)) was 10 % of control and 20 % of control, the T/C (dose: 1000.0 mg/kg/injection, schedule: Q01DX001 (ip), vehicle: saline) was 49 % of control and 64 % of control and the T/C (dose: 1000.0 mg/kg/injection, schedule: Q01DX006 (iv), vehicle: saline) was 21 % of control. The T/C (dose: 1000.0 mg/kg/injection, schedule: Q07DX002 (ip), vehicle: saline) was 69 % of control.

With `Nc1nc(Cl)c2[nH]cnc2n1` the T/C (dose: 31.0 mg/kg/injection, schedule: Q01DX011 (ip), vehicle: methylcellulose (MC)) was 60 % of control, the T/C (dose: 62.0 mg/kg/injection, schedule: Q01DX011 (ip), vehicle: methylcellulose (MC)) was 13 % of control and the T/C [1] was 4 % of control.

With `CCn1cnc2c(SC3CCCC3)ncnc21` the T/C (dose: 5.0 mg/kg/injection, schedule: Q01DX011 (ip), vehicle: carboxymethylcellulose (CMC)) was 16 % of control, the T/C (dose: 7.5 mg/kg/injection, schedule: Q01DX011 (ip), vehicle: carboxymethylcellulose (CMC)) was 4 % of control and the T/C (dose: 10.0 mg/kg/injection, schedule: Q01DX011 (ip), vehicle: carboxymethylcellulose (CMC)) was 3 % of control. For the same compound, the T/C (dose: 25.0 mg/kg/injection, schedule: Q01DX011 (ip), vehicle: carboxymethylcellulose (CMC)) was 14 % of control.

`CC(=O)OCC1OC(n2c(Br)nc3c(=O)[nH]c(N)nc32)C(OC(C)=O)C1OC(C)=O` (centres undefined) was tested, and the T/C (dose: 30.0 mg/kg/injection, schedule: Q01DX011 (ip), vehicle: carboxymethylcellulose (CMC)) was 95 % of control, the T/C (dose: 60.0 mg/kg/injection, schedule: Q01DX011 (ip), vehicle: carboxymethylcellulose (CMC)) was 119 % of control and the T/C (dose: 120.0 mg/kg/injection, schedule: Q01DX011 (ip), vehicle: carboxymethylcellulose (CMC)) was 90 % of control. For the same compound, the T/C (dose: 240.0 mg/kg/injection, schedule: Q01DX011 (ip), vehicle: carboxymethylcellulose (CMC)) was 82 % of control.

With `C[C@]12CCCC[C@@H]1CC[C@@H]1[C@@H]2[C@@H](O)C[C@]2(C)[C@@H](N)CC[C@@H]12` the T/C (dose: 22.0 mg/kg/injection, schedule: Q01DX011 (sc), vehicle: steriod suspending solution) was 106 % of control and the T/C (dose: 44.0 mg/kg/injection, schedule: Q01DX011 (sc), vehicle: steriod suspending solution) was 74 % of control.

For `S=c1nc[nH]c2c1ncn2C1CC1`, the T/C (dose: 31.0 mg/kg/injection, schedule: Q01DX011 (ip), vehicle: carboxymethylcellulose (CMC)) was 86 % of control, the T/C (dose: 62.0 mg/kg/injection, schedule: Q01DX011 (ip), vehicle: carboxymethylcellulose (CMC)) was 89 % of control and the T/C (dose: 125.0 mg/kg/injection, schedule: Q01DX011 (ip), vehicle: carboxymethylcellulose (CMC)) was 86 % of control. For the same compound, the T/C (dose: 250.0 mg/kg/injection, schedule: Q01DX011 (ip), vehicle: carboxymethylcellulose (CMC)) was 33 % of control and the T/C (dose: 500.0 mg/kg/injection, schedule: Q01DX011 (ip), vehicle: carboxymethylcellulose (CMC)) was 59 % of control.

With `CS(=O)(=O)OCCC(=O)NCCCNC(=O)CCOS(C)(=O)=O` the T/C (dose: 28.0 mg/kg/injection, schedule: Q01DX011 (ip), vehicle: methylcellulose (MC)) was 85 % of control and the T/C (dose: 52.0 mg/kg/injection, schedule: Q01DX011 (ip), vehicle: methylcellulose (MC)) was 49 % of control.

`CC(C)C(Nc1ncnc2nc[nH]c12)C(=O)O` (centres undefined) was tested, and the T/C [2] was 180 % of control, the T/C (dose: 25.0 mg/kg/injection, schedule: Q01DX011 (ip), vehicle: methylcellulose (MC)) was 230 % of control and the T/C [3] was 239 % of control. The T/C [4] was 192 % of control.

`CCOC(=O)c1cc[c]([Sb](=[O])([OH])[OH])cc1` was tested, and the T/C [2] was 116 % of control, the T/C (dose: 15.0 mg/kg/injection, schedule: Q01DX011 (ip), vehicle: carboxymethylcellulose (CMC)) was 70 % of control and the T/C [3] was 55 % of control. The T/C [4] was 102 % of control.

For `O=C(Nc1ccc(NC2=NCCN2)cc1)c1ccc(C(=O)Nc2ccc(NC3=NCCN3)cc2)cc1`, the T/C (dose: 4.0 mg/kg/injection, schedule: Q01DX011 (ip), vehicle: saline) was 96 % of control, the T/C (dose: 8.0 mg/kg/injection, schedule: Q01DX011 (ip), vehicle: saline) was 85 % of control and the T/C (dose: 16.0 mg/kg/injection, schedule: Q01DX011 (ip), vehicle: saline) was 83 % of control.

In the case of `CCCCC(CCCC)(C(=O)OCC)C(=O)OCC`, the T/C (dose: 40.6 mg/kg/injection, schedule: Q01DX011 (ip), vehicle: methylcellulose (MC)) is reported as 65 % of control, the T/C (dose: 81.25 mg/kg/injection, schedule: Q01DX011 (ip), vehicle: methylcellulose (MC)) is reported as 63 % of control and the T/C (dose: 162.5 mg/kg/injection, schedule: Q01DX011 (ip), vehicle: methylcellulose (MC)) is reported as 52 % of control.
